Measurements from PMC2787699 (Biochemistry, 2009).

Target: T1, TalrD/GalrD (Salmonella enterica, UniProt Q8ZL58)
T1 sequence (Q8ZL58 1-398): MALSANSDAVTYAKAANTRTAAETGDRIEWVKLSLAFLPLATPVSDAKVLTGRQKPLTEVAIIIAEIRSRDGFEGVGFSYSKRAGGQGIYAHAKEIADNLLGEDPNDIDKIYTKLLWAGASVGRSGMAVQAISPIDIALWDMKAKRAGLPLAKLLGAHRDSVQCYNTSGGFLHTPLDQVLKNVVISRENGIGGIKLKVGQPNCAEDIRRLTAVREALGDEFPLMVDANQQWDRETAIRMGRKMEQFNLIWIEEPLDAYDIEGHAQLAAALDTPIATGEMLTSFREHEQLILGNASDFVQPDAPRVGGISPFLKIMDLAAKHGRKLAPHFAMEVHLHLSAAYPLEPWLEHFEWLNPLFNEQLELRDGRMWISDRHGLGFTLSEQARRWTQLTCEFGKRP
Assay: polarimetry at […] nm, product formation
Assay type: biochemical
Details: 10 mM galactarate, 50 mM Hepes pH 8.0, 5 mM MgCl2, room temperature

## O=C(O)[C@@H](O)[C@H](O)[C@H](O)[C@@H](O)C(=O)O [galactarate]
  polarimetry at 589 nm, product formation: TalrD/GalrD produces a product with a positive rotation
